{"source": "the supplement of paper PMC10307832", "assay_in_all_cases": "relative viability (nuclei count vs DMSO), 5 days (fraction); higher = more cells survive", "key": {"[1]": {"system": "NCI-H1299", "method_in_brief": "(§1)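 Nuclei were stained with Hoechst during a one-step fixation (final 0.05% Triton X-100, 1% formaldehyde, 1 ug/ml Hoechst) carried out 5 days after dosing, then counted on 4× images. The cells, lung cancer lines in 1536-well plates, had been dosed by pin tool the day after seeding with one drug alone or a fixed anchor-drug dose plus five library-drug doses (not always all listed) in √10 steps. Relative viability is the nuclei count in treated wells divided by that in vehicle wells, and each value is the median of duplicate plates.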"}, "[2]": {"system": "A549", "method_in_brief": "as §1"}, "[3]": {"system": "NCI-H2405", "method_in_brief": "as §1"}, "[4]": {"system": "NCI-H2009", "method_in_brief": "as §1"}, "[5]": {"system": "NCI-H647", "method_in_brief": "as §1"}, "[6]": {"system": "LOU-NH91", "method_in_brief": "as §1"}, "[7]": {"system": "NCI-H1703", "method_in_brief": "as §1"}, "[8]": {"system": "IA-LM", "method_in_brief": "as §1"}, "[9]": {"system": "EBC-1", "method_in_brief": "as §1"}, "[10]": {"system": "Calu-6", "method_in_brief": "as §1"}}}
{"molecule": "Cc1csc(=NC2CCCCC2)n1/N=C/c1ccc(O)c(O)c1O", "note": "[MIM1] + CC1(C)CCC(c2ccc(Cl)cc2)=C(CN2CCN(c3ccc(C(=O)NS(=O)(=O)c4ccc(N[C@H](CCN5CCOCC5)CSc5ccccc5)c(S(=O)(=O)C(F)(F)F)c4)cc3)CC2)C1 [Navitoclax] (partner 0.5 µM)", "values": [{"measurement": "relative viability", "setting": "[1]; first compound 0.2 µM", "result": 1.06}, {"measurement": "relative viability", "setting": "[1]; first compound 0.6325 µM", "result": 1.07}, {"measurement": "relative viability", "setting": "[1]; first compound 2 µM", "result": 1.04}, {"measurement": "relative viability", "setting": "[1]; first compound 6.325 µM", "result": 1.05}, {"measurement": "relative viability", "setting": "[1]; first compound 20 µM", "result": 0.974}, {"measurement": "relative viability", "setting": "[2]; first compound 0.2 µM", "result": 1.17}, {"measurement": "relative viability", "setting": "[2]; first compound 0.6325 µM", "result": 1.24}, {"measurement": "relative viability", "setting": "[2]; first compound 2 µM", "result": 1.3}, {"measurement": "relative viability", "setting": "[2]; first compound 6.325 µM", "result": 0.843}, {"measurement": "relative viability", "setting": "[2]; first compound 20 µM", "result": 0.0781}, {"measurement": "relative viability", "setting": "[3]; first compound 0.2 µM", "result": 0.946}, {"measurement": "relative viability", "setting": "[3]; first compound 0.6325 µM", "result": 0.999}, {"measurement": "relative viability", "setting": "[3]; first compound 2 µM", "result": 0.884}, {"measurement": "relative viability", "setting": "[3]; first compound 6.325 µM", "result": 0.798}, {"measurement": "relative viability", "setting": "[3]; first compound 20 µM", "result": 0.35}, {"measurement": "relative viability", "setting": "[4]; first compound 0.2 µM", "result": 1.14}, {"measurement": "relative viability", "setting": "[4]; first compound 0.6325 µM", "result": 1.19}, {"measurement": "relative viability", "setting": "[4]; first compound 2 µM", "result": 1.22}, {"measurement": "relative viability", "setting": "[4]; first compound 6.325 µM", "result": 0.999}, {"measurement": "relative viability", "setting": "[4]; first compound 20 µM", "result": 0.826}, {"measurement": "relative viability", "setting": "[5]; first compound 0.2 µM", "result": 1.2}, {"measurement": "relative viability", "setting": "[5]; first compound 0.6325 µM", "result": 0.989}, {"measurement": "relative viability", "setting": "[5]; first compound 2 µM", "result": 0.742}, {"measurement": "relative viability", "setting": "[5]; first compound 6.325 µM", "result": 0.809}, {"measurement": "relative viability", "setting": "[5]; first compound 20 µM", "result": 0.617}, {"measurement": "relative viability", "setting": "[6]; first compound 0.2 µM", "result": 0.588}, {"measurement": "relative viability", "setting": "[6]; first compound 0.6325 µM", "result": 0.69}, {"measurement": "relative viability", "setting": "[6]; first compound 2 µM", "result": 0.532}, {"measurement": "relative viability", "setting": "[6]; first compound 6.325 µM", "result": 0.492}, {"measurement": "relative viability", "setting": "[6]; first compound 20 µM", "result": 0.313}, {"measurement": "relative viability", "setting": "[7]; first compound 0.2 µM", "result": 0.91}, {"measurement": "relative viability", "setting": "[7]; first compound 0.6325 µM", "result": 1.15}, {"measurement": "relative viability", "setting": "[7]; first compound 2 µM", "result": 1.03}, {"measurement": "relative viability", "setting": "[7]; first compound 6.325 µM", "result": 0.135}, {"measurement": "relative viability", "setting": "[7]; first compound 20 µM", "result": 0.117}, {"measurement": "relative viability", "setting": "[8]; first compound 0.2 µM", "result": 0.588}, {"measurement": "relative viability", "setting": "[8]; first compound 0.6325 µM", "result": 0.713}, {"measurement": "relative viability", "setting": "[8]; first compound 2 µM", "result": 0.721}, {"measurement": "relative viability", "setting": "[8]; first compound 6.325 µM", "result": 0.195}, {"measurement": "relative viability", "setting": "[8]; first compound 20 µM", "result": 0.0808}, {"measurement": "relative viability", "setting": "[9]; first compound 0.2 µM", "result": 0.417}, {"measurement": "relative viability", "setting": "[9]; first compound 0.6325 µM", "result": 0.475}, {"measurement": "relative viability", "setting": "[9]; first compound 2 µM", "result": 0.367}, {"measurement": "relative viability", "setting": "[9]; first compound 6.325 µM", "result": 0.227}, {"measurement": "relative viability", "setting": "[9]; first compound 20 µM", "result": 0.166}, {"measurement": "relative viability", "setting": "[10]; first compound 0.2 µM", "result": 0.772}, {"measurement": "relative viability", "setting": "[10]; first compound 0.6325 µM", "result": 0.93}, {"measurement": "relative viability", "setting": "[10]; first compound 2 µM", "result": 0.857}, {"measurement": "relative viability", "setting": "[10]; first compound 6.325 µM", "result": 0.205}, {"measurement": "relative viability", "setting": "[10]; first compound 20 µM", "result": 0.135}]}
{"molecule": "Cc1cn(-c2cc(NC(=O)c3ccc(C)c(Nc4nccc(-c5cccnc5)n4)c3)cc(C(F)(F)F)c2)cn1", "note": "[Nilotinib] + Cc1nc(NC(=O)N2CCC[C@H]2C(N)=O)sc1-c1ccnc(C(C)(C)C(F)(F)F)c1 [Alpelisib] (partner 2 µM)", "values": [{"measurement": "relative viability", "setting": "[2]; first compound 0.001 µM", "result": 0.721}, {"measurement": "relative viability", "setting": "[2]; first compound 0.003162 µM", "result": 0.817}, {"measurement": "relative viability", "setting": "[2]; first compound 0.01 µM", "result": 1.02}, {"measurement": "relative viability", "setting": "[2]; first compound 0.03162 µM", "result": 0.543}, {"measurement": "relative viability", "setting": "[2]; first compound 0.1 µM", "result": 0.649}, {"measurement": "relative viability", "setting": "[3]; first compound 0.001 µM", "result": 0.808}, {"measurement": "relative viability", "setting": "[3]; first compound 0.003162 µM", "result": 0.733}, {"measurement": "relative viability", "setting": "[3]; first compound 0.01 µM", "result": 0.715}, {"measurement": "relative viability", "setting": "[3]; first compound 0.03162 µM", "result": 0.597}, {"measurement": "relative viability", "setting": "[3]; first compound 0.1 µM", "result": 0.486}, {"measurement": "relative viability", "setting": "[4]; first compound 0.001 µM", "result": 1.13}, {"measurement": "relative viability", "setting": "[4]; first compound 0.003162 µM", "result": 1.2}, {"measurement": "relative viability", "setting": "[4]; first compound 0.01 µM", "result": 1.25}, {"measurement": "relative viability", "setting": "[4]; first compound 0.03162 µM", "result": 1.14}, {"measurement": "relative viability", "setting": "[4]; first compound 0.1 µM", "result": 1.14}, {"measurement": "relative viability", "setting": "[5]; first compound 0.001 µM", "result": 0.956}, {"measurement": "relative viability", "setting": "[5]; first compound 0.003162 µM", "result": 1.16}, {"measurement": "relative viability", "setting": "[5]; first compound 0.03162 µM", "result": 0.958}, {"measurement": "relative viability", "setting": "[5]; first compound 0.1 µM", "result": 0.872}, {"measurement": "relative viability", "setting": "[6]; first compound 0.001 µM", "result": 0.741}, {"measurement": "relative viability", "setting": "[6]; first compound 0.003162 µM", "result": 0.7}, {"measurement": "relative viability", "setting": "[6]; first compound 0.01 µM", "result": 0.802}, {"measurement": "relative viability", "setting": "[6]; first compound 0.03162 µM", "result": 0.707}, {"measurement": "relative viability", "setting": "[6]; first compound 0.1 µM", "result": 0.676}, {"measurement": "relative viability", "setting": "[7]; first compound 0.001 µM", "result": 0.338}, {"measurement": "relative viability", "setting": "[7]; first compound 0.003162 µM", "result": 0.249}, {"measurement": "relative viability", "setting": "[7]; first compound 0.01 µM", "result": 0.171}, {"measurement": "relative viability", "setting": "[7]; first compound 0.03162 µM", "result": 0.166}, {"measurement": "relative viability", "setting": "[7]; first compound 0.1 µM", "result": 0.175}, {"measurement": "relative viability", "setting": "[8]; first compound 0.001 µM", "result": 0.653}, {"measurement": "relative viability", "setting": "[8]; first compound 0.003162 µM", "result": 0.679}, {"measurement": "relative viability", "setting": "[8]; first compound 0.01 µM", "result": 0.781}, {"measurement": "relative viability", "setting": "[8]; first compound 0.03162 µM", "result": 0.606}, {"measurement": "relative viability", "setting": "[8]; first compound 0.1 µM", "result": 0.963}, {"measurement": "relative viability", "setting": "[9]; first compound 0.001 µM", "result": 0.787}, {"measurement": "relative viability", "setting": "[9]; first compound 0.003162 µM", "result": 0.796}, {"measurement": "relative viability", "setting": "[9]; first compound 0.01 µM", "result": 0.811}, {"measurement": "relative viability", "setting": "[9]; first compound 0.03162 µM", "result": 0.566}, {"measurement": "relative viability", "setting": "[9]; first compound 0.1 µM", "result": 0.689}, {"measurement": "relative viability", "setting": "[10]; first compound 0.001 µM", "result": 1.11}, {"measurement": "relative viability", "setting": "[10]; first compound 0.01 µM", "result": 1.03}, {"measurement": "relative viability", "setting": "[10]; first compound 0.03162 µM", "result": 0.989}, {"measurement": "relative viability", "setting": "[10]; first compound 0.1 µM", "result": 0.958}]}
